Measured values as given in US20090209494A1, “21-DEOXYMACBECIN ANALOGUES USEFUL AS ANTITUMOR AGENTS” (priority 2005, published 2009).
Converted amounts (≈) assume the structure as drawn.

Tests used:
Solubility assay = type: physicochemical; settings: aqueous buffer, kinetic from dmso stock; 2% DMSO in PBS pH 7.3; shaken up to six hours; maximum measurable 0.5 mM
Procedure: Solutions (25 mM) of the test compounds were prepared by dissolving 3-5 mg aliquots in the appropriate amount of DMSO.
Aliquots (0.01 mL) were added to 0.490 mL of pH 7.3 PBS in glass vials. For each time point, 3 PBS vials were prepared in amber glass vials. For the six hour time point triplicate aliquots in DMSO were also prepared.
The resulting 0.5 mM solutions were shaken for up to six hours, with vials removed for analysis at 1, 3 and 6 hours. Samples were analysed by HPLC (0.025 mL injections).
Solubility in 2% DMSO in PBS at each time point was determined by comparing total peak areas for each chromatogram with mean total peak area for chromatograms produced from the corresponding 6 hour DMSO solutions. (Mean total peak area in DMSO solutions was assumed to be equivalent to a 0.5 mM solution).

DU145 = assay: in vitro anticancer activity in combination with compound 14, modified propidium iodide assay; type: cell-based, human
Procedure: Standard agents were applied at 10 concentrations in sextuplicates in half-log increments. […] Growth inhibition is expressed as treated/control×100 (% T/C), and IC70 values for each combination were determined by plotting compound concentration versus cell viability.
In vitro evaluation of 14 for anticancer activity when combined with standard cytotoxic agents against the tumour cell line DU145 in a monolayer proliferation assay was carried out as described in the general methods using a modified propidium iodide assay.

Hsp90 = Hsp90 (Homo sapiens, UniProt P07900); settings: cited from earlier work
[1] = concentration of 14: 0 nM (standard agent alone)

Structure (SMILES) | solubility (Solubility assay) [µM] | IC70 of standard agent (DU145; combined with 14 at 80 nM) [µg/mL] | IC70 of standard agent (DU145; combined with 14 at 120 nM) [µg/mL] | IC70 of standard agent (DU145; combined with 14 at 160 nM) [µg/mL] | IC70 of standard agent (DU145; [1]) [µg/mL] | binding affinity to Hsp90, greater than 17-AAG (Hsp90; relative to 17-AAG) [fold] | binding affinity to Hsp90, greater than geldanamycin (Hsp90; relative to geldanamycin) [fold]
COC1=C2C[C@@H](C)C[C@H](OC)[C@H](O)[C@@H](C)/C=C(\C)[C@H](OC(N)=O)[C@@H](OC)/C=C\C=C(/C)C(=O)NC(=CC1=O)C2=O [Geldanamycin, geldanamycin] | 1.7 (≈ 0.953 µg/mL) |  |  |  |  |  | 
O=C1c2c(O)ccc(O)c2C(=O)c2c(NCCNCCO)ccc(NCCNCCO)c21 [mitoxantrone] |  | 1.00 | 1.25 | 0.11 | 2.08 |  | 
CO[C@H]1C[C@H](C)Cc2cc(O)cc(c2)NC(=O)/C=C/CC[C@H](OC)[C@@H](OC(N)=O)/C(C)=C/[C@H](C)[C@H]1O [KOSN1559] |  |  |  |  |  | 8 | 4
O=P1(NCCCl)OCCCN1CCCl (stereo not drawn) [ifosfamid] |  | 80.57 | 52.09 | 17.32 | 90.14 |  | 
CC[C@]1(O)C[C@@H]2CN(CCc3c([nH]c4ccccc34)[C@@](C(=O)OC)(c3cc4c(cc3OC)N(C)[C@H]3[C@@](O)(C(N)=O)[C@H](O)[C@]5(CC)C=CCN6CC[C@]43[C@@H]65)C2)C1 [vindesine] |  | 0.0008 | 0.0006 | 0.0001 | 0.0009 |  | 
